Experimental data published in patent publication US20140227419A1, “ANTI-FUNGAL AGENT FOR PROCESSED CEREAL FOODS” (NAGASE & co., LTD., priority 2011, published 2014).

Test system: mold
Experiment: Anti-fungal effect by spraying method (2): loaves with calcium propionate kneaded into the dough sprayed, mold growth checked visually
Conditions: 0.3% calcium propionate kneaded into bread dough; sprayed with nothing
Protocol: Three hundred and thirty grams of bread dough (dough) of the raw materials blended in the ratio shown in Table 1 (Example 1) was mixed at a low speed for 5 minutes, and then, was mixed at a high speed for 7 minutes. The dough was retained at 35° C. for 100 minutes to be leavened, and then, was baked at 140° C. for 20 minutes to obtain a loaf of bread (hereinafter, referred to as a “loaf”).
The obtained loaf was left to room temperature, and the entire surface of the loaf (approximately 280 g) was sprayed with a spraying agent (approximately 10 μL/cm^2) shown in Table 2 (“0.1% chitinase” means a concentration when 1 mg of chitinase is added with respect to 1 ml of the spraying agent). The loaves were retained in the atmosphere to dry the surface, and then, the loaves were independently put into separate plastic bags and were preserved at a room temperature. The presence or the absence of the growth of mold was checked visually. […]
The anti-fungal effects of the spraying agents 1 to 3 were evaluated in the same manner as in Example 1, except that the raw materials were blended in the ratio shown in Table 1 (Example 2) instead of the ratio shown in Table 1 (Example 1). […]

CCC(=O)[O-].CCC(=O)[O-].[Ca+2] [calcium propionate]
Length of preservation time of bread with calcium propionate kneaded into the dough, without spraying: 11 days
